# Results: patent US20090041687A1 (priority 2005, published 2009)
# Structures can show the parent of a compound that is named as a salt.
# Tests used:
# [1] = biological target: T1, μ-opioid receptor (Homo sapiens, UniProt P35372); assay: μ-opioid receptor binding assay and GTP-recruitment assay (screening for antagonists); assay type: biochemical; conditions: [3H] DAMGO binding and DAMGO/GTP-Eu recruitment, membranes from CHO cells overexpressing the receptor, result in words
# T1 construct: purchased Perkin Elmer; host or cells: CHO cells (recombinant overexpression; membrane preparation)
# T1 sequence (P35372 whole entry): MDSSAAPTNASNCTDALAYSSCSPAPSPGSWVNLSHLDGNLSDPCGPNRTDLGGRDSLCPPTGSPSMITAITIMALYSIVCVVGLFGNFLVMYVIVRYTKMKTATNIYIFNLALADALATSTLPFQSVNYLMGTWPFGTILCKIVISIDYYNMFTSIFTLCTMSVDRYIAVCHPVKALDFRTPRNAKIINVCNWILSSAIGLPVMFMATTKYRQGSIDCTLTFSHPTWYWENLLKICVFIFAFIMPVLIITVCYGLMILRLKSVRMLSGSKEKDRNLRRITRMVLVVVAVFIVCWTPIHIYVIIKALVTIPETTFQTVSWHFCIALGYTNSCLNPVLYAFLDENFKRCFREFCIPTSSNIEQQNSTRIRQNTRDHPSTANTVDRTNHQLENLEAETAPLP
# Procedure: […] DAMGO (Amersham) in 50 mM Tris HCl pH 7.4 (Sigma), 10 mM MgCl2 (Sigma) and 0.2% BSA (Sigma) in the presence of the negative control DMSO (Fluka) or the test compounds. The incubation mixture was transferred to filter plates (Perkin Elmer), the liquid aspirated through the application of a vacuum from the bottom and the plate washed twice with PBS (Invitrogen). The plate was allowed to dry, 35 μl of scintillation cocktail (Ultima Gold, Perkin Elmer) added, sealed and placed on a TopCount (Packard) for scintillation counting.
# […] The incubation mixture was transferred to filter plates (Perkin Elmer), the liquid aspirated through the application of a vacuum from the bottom and the plate washed twice with PBS (Invitrogen) and allowed to dry. Plates were read in an Analyst reader (LJL Biosystems).
# [2] = test system: human primary melanocytes from skin type IV; assay: total intracellular melanin production in human primary melanocytes (depigmentation); assay type: cell-based; conditions: for Reduction of mean melanin content: versus control
# Procedure: Normal human melanocytes were cultured from freshly excised foreskin of skin type IV and treated with Dispase (ready-to-use, Roche) overnight at 4° C. Melanocytes dissociated from the epidermis were plated in culture flasks at high density using Melanocyte Growth Medium M2 (Promocell) supplemented with the corresponding growth factors (Promocell). These primary cells were cultivated under 100% humidity and 5% CO2 at 37° C. At the second passage, melanocytes were transferred to 6 well plates and allowed to reach 80% surface confluence.
# Medium was renewed on day two of the experiment. Cells were harvested, counted and lysed in 1N NaOH using vigorous vortexing and a 30 minute incubation in an ultrasound bath. Melanin content was determined by measuring the absorption of cell lysates at 475 nm. Values were calibrated against a standard curve based on synthetic melanin (Sigma). The amount of melanin per 1 million cells is reported. Each treatment was run in duplicate.
Compound,identified as opioid receptor antagonist in the screening [1],also measured
O=c1c(O)c(-c2cc(O)c(O)c(O)c2)oc2cc(O)ccc12 [Robinetin],opioid receptor antagonists,
"O=C(Oc1cc(O)cc2c1C[C@@H](OC(=O)c1cc(O)c(O)c(O)c1)[C@@H](c1cc(O)c(O)c(O)c1)O2)c1cc(O)c(O)c(O)c1 [Epigallocatechin 3,5-Digallate]",opioid receptor antagonists,
"O=C(/C=C/c1ccc(O)c(O)c1)c1ccc(O)c(O)c1O [2′,3′,4′,3,4-Pentahydroxychalcone]",opioid receptor antagonists,
"COC1=C(OC)C(=O)C=CC1=O [2,3-Dimethoxy-1,4-benzoquinone]",opioid receptor antagonists,
O=C1/C(=C/c2ccc(O)c(O)c2)Oc2cc(O)cc(O)c21 [Aureusidin],opioid receptor antagonists,
C=CCN1CC[C@]23c4c5ccc(O)c4O[C@H]2C(=O)CC[C@@]3(O)[C@H]1C5 [Naloxone],,"Melanin (μg/10^6 cells) ([2]; Naloxone 1 × 10^−4 M, 4 days, absorption of cell lysates at 475 nm, duplicate): 1.05 μg/10^6 cells; Reduction of mean melanin content ([2]; Naloxone 1 × 10^−4 M, 4 days): 86%; Reduction of mean melanin content ([2]; Naloxone 5 × 10^−6 M, 4 days): 78%; intracellular melanin content compared to the control ([2]; result in words): dramatically reduces intracellular melanin content"
CC(=O)Oc1cc(-c2coc3cc(OC(C)=O)c(OC(C)=O)c(OC(C)=O)c3c2=O)cc(OC(C)=O)c1OC(C)=O [Irigenol Hexaacetate],opioid receptor antagonists,
Oc1cc(O)c2cc(O)c(-c3cc(O)c(O)c(O)c3)[o+]c2c1 [Delphinidin chloride],opioid receptor antagonists,
"CC(C)=CCC(OC(=O)C=C(C)C)C1=CC(=O)c2c(O)ccc(O)c2C1=O (stereo not drawn) [beta,beta-Dimethylacryl shikonin]",opioid receptor antagonists,
O=c1c(-c2cc(O)c(O)c(O)c2)coc2cc(O)c(O)c(O)c12 [Irigenol ex Iris spp],opioid receptor antagonists,
COc1cc2c3cc1Oc1c(OC)c(OC)cc4c1[C@@H](Cc1cccc(c1)Oc1ccc(c(O)c1)C[C@@H]3N(C)CC2)N(C)CC4 [Berbamine Hydrochloride],,identified as opioid receptor antagonist in the screening ([1]; Hydrochloride): opioid receptor antagonists
"COc1c(O)cc(C)c(O)c1OC [2,3-Dimethoxy-5-methylhydroquinone]",opioid receptor antagonists,
O=c1c(O)c(-c2ccc(O)c(O)c2)oc2cc(O)c(O)c(O)c12 [Quercetagetin],opioid receptor antagonists,
C/C1=C\CCC(C)(O)/C=C/C(C(C)C)CC/C(C)=C/CC1 (stereo not shown) [Isocembrol],opioid receptor antagonists,
"COC1=C(OC)C(=O)C(C)=CC1=O [2,3-Dimethoxy-5-methyl-1,4-benzoquinone]",opioid receptor antagonists,
"COc1c(O)ccc(O)c1OC [2,3-Dimethoxyhydroquinone]",opioid receptor antagonists,
